Measurements: the kinase profiling compilation of Christmann-Franck et al. (2016)

Columns and labels:
Assay in all cases: radiometric filter-binding kinase assay
[1] = tested on: AKT1 (human), P31749 [S473D]
[2] = tested on: AKT2 (human), P31751 [S474D]
CSNK2A1 (human) = CSNK2A1 (human) (UniProt P68400)
DYRK3 (human) = DYRK3 (human) (UniProt O43781)
EPHA2 (human) = EPHA2 (human) (UniProt P29317)
EPHB1 (human) = EPHB1 (human) (UniProt P54762)
FGFR1 (human) = FGFR1 (human) (UniProt P11362)
GSK3B (human) = GSK3B (human) (UniProt P49841)
INSRR (human) = INSRR (human) (UniProt P14616)
IRAK4 (human) = IRAK4 (human) (UniProt Q9NWZ3)
LCK (mouse) = conditions: accession and sequence are those of the human protein
MAP2K1 (human) = MAP2K1 (human) (UniProt Q02750)
MAP2K6 (human) = MAP2K6 (human) (UniProt P52564)
MAP3K9 (human) = MAP3K9 (human) (UniProt P80192)
MAPK10 (human) = MAPK10 (human) (UniProt P53779)
MAPK13 (human) = MAPK13 (human) (UniProt O15264)
MARK1 (human) = MARK1 (human) (UniProt Q9P0L2)
MARK2 (human) = MARK2 (human) (UniProt Q7KZI7)
MKNK1 (human) = MKNK1 (human) (UniProt Q9BUB5)
MYLK (human) = MYLK (human) (UniProt Q15746)
NEK2 (human) = NEK2 (human) (UniProt P51955)
NEK6 (human) = NEK6 (human) (UniProt Q9HC98)
[3] = tested on: PAK2 (human), Q13177 [T402E]
PHKG1 (human) = PHKG1 (human) (UniProt Q16816)
PIM3 (human) = PIM3 (human) (UniProt Q86V86)
PKN2 (human) = PKN2 (human) (UniProt Q16513)
ROCK2 (rat) = conditions: accession and sequence are those of the human protein
[4] = tested on: RPS6KB1 (human), P23443 [T412E]
SRPK1 (human) = SRPK1 (human) (UniProt Q96SB4)
[5] = target: STK11 CAB39 STRADA (human) (UniProt Q9Y376+Q7RTN6+Q15831)
SYK (human) = SYK (human) (UniProt P43405); conditions: compound 1.0 µM
TBK1 (human) = TBK1 (human) (UniProt Q9UHD2)
TTK (human) = TTK (human) (UniProt P33981)
INSR (human) = INSR (human) (UniProt P06213); conditions: compound 0.1 µM
MAPK11 (human) = MAPK11 (human) (UniProt Q15759); conditions: compound 0.1 µM
PIM2 (human) = PIM2 (human) (UniProt Q9P1W9); conditions: compound 0.1 µM

Sequence of PKN2 (human) (Q16513 whole entry, looked up): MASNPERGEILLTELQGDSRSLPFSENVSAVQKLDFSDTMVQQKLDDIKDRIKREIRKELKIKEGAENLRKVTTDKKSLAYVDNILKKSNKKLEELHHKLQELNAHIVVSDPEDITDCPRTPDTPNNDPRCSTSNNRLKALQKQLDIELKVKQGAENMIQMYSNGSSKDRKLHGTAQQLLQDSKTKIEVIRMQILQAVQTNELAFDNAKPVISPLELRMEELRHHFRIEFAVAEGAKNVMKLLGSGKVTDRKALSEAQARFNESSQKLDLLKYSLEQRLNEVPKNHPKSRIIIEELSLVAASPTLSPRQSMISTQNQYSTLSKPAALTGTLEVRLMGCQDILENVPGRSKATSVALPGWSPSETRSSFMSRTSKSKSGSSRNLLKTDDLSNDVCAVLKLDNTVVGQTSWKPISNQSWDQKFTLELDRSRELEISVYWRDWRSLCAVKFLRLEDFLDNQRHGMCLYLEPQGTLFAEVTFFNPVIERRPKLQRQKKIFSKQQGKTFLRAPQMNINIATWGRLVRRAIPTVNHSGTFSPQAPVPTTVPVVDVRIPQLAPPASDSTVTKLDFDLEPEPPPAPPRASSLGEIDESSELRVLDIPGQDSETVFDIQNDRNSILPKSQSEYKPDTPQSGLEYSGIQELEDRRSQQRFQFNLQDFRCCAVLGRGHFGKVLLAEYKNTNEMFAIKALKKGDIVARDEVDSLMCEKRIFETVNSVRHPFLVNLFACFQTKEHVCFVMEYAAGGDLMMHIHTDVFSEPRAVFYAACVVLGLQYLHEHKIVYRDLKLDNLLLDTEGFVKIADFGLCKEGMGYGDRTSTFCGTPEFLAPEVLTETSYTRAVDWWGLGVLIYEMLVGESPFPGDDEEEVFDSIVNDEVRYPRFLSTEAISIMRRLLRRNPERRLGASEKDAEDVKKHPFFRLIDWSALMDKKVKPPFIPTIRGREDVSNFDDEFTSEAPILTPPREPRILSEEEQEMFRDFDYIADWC
Sequence of NEK2 (human) (P51955 whole entry, looked up): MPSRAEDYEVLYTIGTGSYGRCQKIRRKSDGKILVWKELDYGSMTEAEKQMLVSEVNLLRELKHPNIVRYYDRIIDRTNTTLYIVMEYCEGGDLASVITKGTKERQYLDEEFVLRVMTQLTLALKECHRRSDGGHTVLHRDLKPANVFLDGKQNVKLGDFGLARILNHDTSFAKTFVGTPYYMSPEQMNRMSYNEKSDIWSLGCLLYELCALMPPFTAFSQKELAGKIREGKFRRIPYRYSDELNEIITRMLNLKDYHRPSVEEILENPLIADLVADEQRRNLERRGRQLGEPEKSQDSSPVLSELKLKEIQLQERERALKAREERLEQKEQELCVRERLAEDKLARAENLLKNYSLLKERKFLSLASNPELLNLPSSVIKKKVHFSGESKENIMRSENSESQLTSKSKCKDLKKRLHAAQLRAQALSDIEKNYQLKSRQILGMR
Sequence of NEK6 (human) (Q9HC98 whole entry, looked up): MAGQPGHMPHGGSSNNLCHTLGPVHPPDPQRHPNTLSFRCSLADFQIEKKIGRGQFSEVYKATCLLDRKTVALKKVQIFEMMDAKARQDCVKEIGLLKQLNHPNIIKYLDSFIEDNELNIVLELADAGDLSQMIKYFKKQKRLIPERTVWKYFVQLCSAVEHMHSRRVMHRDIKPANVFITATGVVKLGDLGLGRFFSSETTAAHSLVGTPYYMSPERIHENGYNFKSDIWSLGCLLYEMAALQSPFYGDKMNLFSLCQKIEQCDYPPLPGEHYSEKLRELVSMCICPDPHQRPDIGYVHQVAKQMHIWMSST
Sequence of CSNK2A1 (human) (P68400 whole entry, looked up): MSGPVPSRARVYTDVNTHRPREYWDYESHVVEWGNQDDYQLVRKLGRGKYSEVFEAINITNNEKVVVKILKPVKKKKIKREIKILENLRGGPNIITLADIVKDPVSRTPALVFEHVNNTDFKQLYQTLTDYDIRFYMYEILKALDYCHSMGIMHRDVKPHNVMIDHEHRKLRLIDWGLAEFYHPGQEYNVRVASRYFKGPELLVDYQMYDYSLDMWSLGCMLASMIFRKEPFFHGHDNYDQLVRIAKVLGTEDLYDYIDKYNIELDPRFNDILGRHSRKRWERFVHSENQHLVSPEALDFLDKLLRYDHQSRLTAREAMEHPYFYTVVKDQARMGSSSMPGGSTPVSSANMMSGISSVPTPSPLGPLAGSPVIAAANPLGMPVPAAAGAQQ
Sequence of MARK1 (human) (Q9P0L2 whole entry, looked up): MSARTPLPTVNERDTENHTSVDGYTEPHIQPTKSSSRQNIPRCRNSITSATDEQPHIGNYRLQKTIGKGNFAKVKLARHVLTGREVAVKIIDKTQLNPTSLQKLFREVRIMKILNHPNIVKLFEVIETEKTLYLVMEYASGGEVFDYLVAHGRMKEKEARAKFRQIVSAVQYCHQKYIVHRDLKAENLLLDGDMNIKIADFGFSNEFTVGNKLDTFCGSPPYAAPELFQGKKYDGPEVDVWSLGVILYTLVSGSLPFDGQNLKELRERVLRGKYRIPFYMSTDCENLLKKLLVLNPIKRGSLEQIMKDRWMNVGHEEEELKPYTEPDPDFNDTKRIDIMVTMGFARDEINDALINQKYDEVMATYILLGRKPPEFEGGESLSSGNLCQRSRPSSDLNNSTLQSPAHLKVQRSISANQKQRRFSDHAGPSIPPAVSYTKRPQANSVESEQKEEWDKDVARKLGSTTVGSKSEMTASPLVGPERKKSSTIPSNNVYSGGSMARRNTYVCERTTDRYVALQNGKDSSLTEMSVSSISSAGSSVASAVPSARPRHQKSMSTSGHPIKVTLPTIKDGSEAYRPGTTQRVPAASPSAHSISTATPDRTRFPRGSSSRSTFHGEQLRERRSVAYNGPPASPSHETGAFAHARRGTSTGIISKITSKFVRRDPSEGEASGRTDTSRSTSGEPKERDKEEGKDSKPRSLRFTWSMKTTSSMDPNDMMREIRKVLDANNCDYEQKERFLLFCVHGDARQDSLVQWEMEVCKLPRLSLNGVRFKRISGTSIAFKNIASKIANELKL
Sequence of PHKG1 (human) (Q16816 whole entry, looked up): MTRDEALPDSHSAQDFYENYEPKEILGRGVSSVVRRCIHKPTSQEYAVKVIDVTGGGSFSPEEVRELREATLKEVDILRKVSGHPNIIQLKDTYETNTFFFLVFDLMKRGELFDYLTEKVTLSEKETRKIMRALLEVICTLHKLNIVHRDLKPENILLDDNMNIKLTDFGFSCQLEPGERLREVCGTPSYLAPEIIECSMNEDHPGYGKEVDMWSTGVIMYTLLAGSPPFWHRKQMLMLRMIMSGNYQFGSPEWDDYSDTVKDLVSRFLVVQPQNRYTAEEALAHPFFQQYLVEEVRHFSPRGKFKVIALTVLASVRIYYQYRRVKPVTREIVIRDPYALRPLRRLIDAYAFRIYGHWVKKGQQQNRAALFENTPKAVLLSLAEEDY
Sequence of IRAK4 (human) (Q9NWZ3 whole entry, looked up): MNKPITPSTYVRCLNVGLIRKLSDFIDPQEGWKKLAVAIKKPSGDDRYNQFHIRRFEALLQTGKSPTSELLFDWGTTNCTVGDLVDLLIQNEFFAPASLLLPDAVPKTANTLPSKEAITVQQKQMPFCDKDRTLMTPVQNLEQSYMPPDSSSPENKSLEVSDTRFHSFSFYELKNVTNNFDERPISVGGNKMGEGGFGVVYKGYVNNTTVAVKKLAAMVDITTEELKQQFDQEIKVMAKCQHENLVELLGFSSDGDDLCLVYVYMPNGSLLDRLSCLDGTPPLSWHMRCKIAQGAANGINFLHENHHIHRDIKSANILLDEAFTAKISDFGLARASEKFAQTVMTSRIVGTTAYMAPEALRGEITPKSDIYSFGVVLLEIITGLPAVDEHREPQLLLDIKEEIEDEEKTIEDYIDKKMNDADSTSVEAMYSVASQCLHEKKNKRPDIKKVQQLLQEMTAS
Sequence of MARK2 (human) (Q7KZI7 whole entry, looked up): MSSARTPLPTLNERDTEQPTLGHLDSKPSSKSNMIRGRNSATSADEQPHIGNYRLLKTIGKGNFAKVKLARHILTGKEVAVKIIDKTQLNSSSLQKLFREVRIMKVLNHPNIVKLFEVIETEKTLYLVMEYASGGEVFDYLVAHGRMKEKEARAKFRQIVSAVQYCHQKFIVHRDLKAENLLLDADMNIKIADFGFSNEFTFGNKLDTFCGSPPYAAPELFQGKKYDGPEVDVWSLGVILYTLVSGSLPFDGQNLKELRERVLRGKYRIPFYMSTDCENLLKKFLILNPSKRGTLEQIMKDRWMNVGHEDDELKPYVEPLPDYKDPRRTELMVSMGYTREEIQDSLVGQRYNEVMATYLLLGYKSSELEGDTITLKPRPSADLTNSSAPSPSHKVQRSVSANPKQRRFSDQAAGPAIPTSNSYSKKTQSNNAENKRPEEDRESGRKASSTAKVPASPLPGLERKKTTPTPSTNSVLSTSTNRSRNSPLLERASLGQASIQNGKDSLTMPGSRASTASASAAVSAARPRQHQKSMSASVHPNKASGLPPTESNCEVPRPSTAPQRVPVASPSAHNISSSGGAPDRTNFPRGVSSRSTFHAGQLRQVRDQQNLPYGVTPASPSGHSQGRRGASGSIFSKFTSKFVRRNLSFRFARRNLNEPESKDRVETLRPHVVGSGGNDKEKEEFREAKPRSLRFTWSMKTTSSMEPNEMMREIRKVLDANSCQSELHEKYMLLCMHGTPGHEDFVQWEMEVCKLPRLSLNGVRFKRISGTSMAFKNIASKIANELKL

In the case of `O=C(NOC[C@H](O)CO)c1ccc(F)c(F)c1Nc1ccc(I)cc1Cl`, the residual activity ([1]; compound 1.0 µM) is reported as 107%, the residual activity ([1]; compound 10.0 µM) is reported as 104% and the residual activity ([2]; compound 1.0 µM) is reported as 95%. For the same compound, the residual activity ([2]; compound 10.0 µM) was 82%, the residual activity (CSNK2A1 (human); compound 1.0 µM) was 107% and the residual activity (CSNK2A1 (human); compound 10.0 µM) was 118%. For the same compound, the residual activity (DYRK3 (human); compound 1.0 µM) was 85%, the residual activity (DYRK3 (human); compound 10.0 µM) was 85% and the residual activity (EPHA2 (human); compound 1.0 µM) was 86%. It also gave a residual activity (EPHA2 (human); compound 10.0 µM) of 94%, a residual activity (EPHB1 (human); compound 1.0 µM) of 95% and a residual activity (EPHB1 (human); compound 10.0 µM) of 115%. The residual activity (FGFR1 (human); compound 1.0 µM) was 140%, the residual activity (FGFR1 (human); compound 10.0 µM) was 83% and the residual activity (GSK3B (human); compound 1.0 µM) was 70%. It also gave a residual activity (GSK3B (human); compound 10.0 µM) of 88%, a residual activity (INSRR (human); compound 1.0 µM) of 106% and a residual activity (IRAK4 (human); compound 1.0 µM) of 81%. For the same compound, the residual activity (IRAK4 (human); compound 10.0 µM) was 100%, the residual activity (LCK (mouse); compound 1.0 µM) was 92% and the residual activity (LCK (mouse); compound 10.0 µM) was 109%. The residual activity (MAP2K1 (human); compound 1.0 µM) was 18%, the residual activity (MAP2K1 (human); compound 10.0 µM) was 2% and the residual activity (MAP2K6 (human); compound 1.0 µM) was 93%. It also gave a residual activity (MAP2K6 (human); compound 10.0 µM) of 102%, a residual activity (MAP3K9 (human); compound 1.0 µM) of 95% and a residual activity (MAP3K9 (human); compound 10.0 µM) of 108%. The residual activity (MAPK10 (human); compound 10.0 µM) was 85%, the residual activity (MAPK13 (human); compound 1.0 µM) was 85% and the residual activity (MAPK13 (human); compound 10.0 µM) was 97%. For the same compound, the residual activity (MARK1 (human); compound 1.0 µM) was 85%, the residual activity (MARK1 (human); compound 10.0 µM) was 85% and the residual activity (MARK2 (human); compound 1.0 µM) was 104%. For the same compound, the residual activity (MARK2 (human); compound 10.0 µM) was 103%, the residual activity (MKNK1 (human); compound 1.0 µM) was 103% and the residual activity (MKNK1 (human); compound 10.0 µM) was 104%. The residual activity (MYLK (human); compound 10.0 µM) was 98%, the residual activity (NEK2 (human); compound 1.0 µM) was 97% and the residual activity (NEK2 (human); compound 10.0 µM) was 102%. For the same compound, the residual activity (NEK6 (human); compound 1.0 µM) was 95%, the residual activity (NEK6 (human); compound 10.0 µM) was 110% and the residual activity ([3]; compound 10.0 µM) was 91%. The residual activity (PHKG1 (human); compound 1.0 µM) was 95%, the residual activity (PHKG1 (human); compound 10.0 µM) was 90% and the residual activity (PIM3 (human); compound 1.0 µM) was 78%. The residual activity (PIM3 (human); compound 10.0 µM) was 72%, the residual activity (PKN2 (human); compound 1.0 µM) was 82% and the residual activity (PKN2 (human); compound 10.0 µM) was 83%. For the same compound, the residual activity (ROCK2 (rat); compound 1.0 µM) was 84%, the residual activity ([4]; compound 1.0 µM) was 97% and the residual activity ([4]; compound 10.0 µM) was 81%. It also gave a residual activity (SRPK1 (human); compound 1.0 µM) of 80%, a residual activity (SRPK1 (human); compound 10.0 µM) of 95% and a residual activity ([5]; compound 1.0 µM) of 113%. It also gave a residual activity (SYK (human)) of 111%, a residual activity (TBK1 (human); compound 1.0 µM) of 117% and a residual activity (TBK1 (human); compound 10.0 µM) of 101%. The residual activity (TTK (human); compound 1.0 µM) was 98% and the residual activity (TTK (human); compound 10.0 µM) was 121%.
`CN1CCN(CCOc2cc(OC3CCOCC3)c3c(Nc4c(Cl)ccc5c4OCO5)ncnc3c2)CC1` showed a residual activity ([1]; compound 0.1 µM) of 99%, a residual activity ([2]; compound 0.1 µM) of 86% and a residual activity (CSNK2A1 (human); compound 0.1 µM) of 112%. The residual activity (DYRK3 (human); compound 0.1 µM) was 114%, the residual activity (EPHA2 (human); compound 0.1 µM) was 55% and the residual activity (EPHB1 (human); compound 0.1 µM) was 81%. For the same compound, the residual activity (FGFR1 (human); compound 0.1 µM) was 110%, the residual activity (GSK3B (human); compound 0.1 µM) was 101% and the residual activity (INSR (human)) was 90%. For the same compound, the residual activity (INSRR (human); compound 0.1 µM) was 123%, the residual activity (IRAK4 (human); compound 0.1 µM) was 100% and the residual activity (MAP2K1 (human); compound 0.1 µM) was 97%. The residual activity (MAP2K6 (human); compound 0.1 µM) was 100%, the residual activity (MAP3K9 (human); compound 0.1 µM) was 86% and the residual activity (MAPK10 (human); compound 0.1 µM) was 116%. For the same compound, the residual activity (MAPK11 (human)) was 85%, the residual activity (MAPK13 (human); compound 0.1 µM) was 91% and the residual activity (MARK1 (human); compound 0.1 µM) was 101%. The residual activity (MARK2 (human); compound 0.1 µM) was 90%, the residual activity (MKNK1 (human); compound 0.1 µM) was 107% and the residual activity (MYLK (human); compound 0.1 µM) was 97%. The residual activity (NEK2 (human); compound 0.1 µM) was 94%, the residual activity (NEK6 (human); compound 0.1 µM) was 101% and the residual activity ([3]; compound 0.1 µM) was 94%. For the same compound, the residual activity (PHKG1 (human); compound 0.1 µM) was 106%, the residual activity (PIM2 (human)) was 105% and the residual activity (PIM3 (human); compound 0.1 µM) was 111%. The residual activity (PKN2 (human); compound 0.1 µM) was 103%, the residual activity (ROCK2 (rat); compound 0.1 µM) was 111% and the residual activity ([4]; compound 0.1 µM) was 93%. The residual activity (SRPK1 (human); compound 0.1 µM) was 82%, the residual activity ([5]; compound 0.1 µM) was 112% and the residual activity (TBK1 (human); compound 0.1 µM) was 103%. For the same compound, the residual activity (TTK (human); compound 0.1 µM) was 112%.
